Laboratory results from patent US20220024891A1 (The Board of Regents of the University of Texas System, priority 2018, published 2022).

Row | melting point | SMILES
1 | 75 to 78 °C | COc1ccc(OC)c(S(=O)(=O)N2CCC(N3CCC(C)CC3)CC2)c1 [compound 32, 1′-((2,5-Dimethoxyphenyl)sulfonyl)-4-methyl-1,4′-bipiperidine]
2 | 165 to 168 °C | CC1CCN(C2CCN(S(=O)(=O)c3ccc([N+](=O)[O-])cc3)CC2)CC1 [compound 7, 4-Methyl-1′-((4-nitrophenyl)sulfonyl)-1,4′-bipiperidine]
3 | 88 to 92 °C | Cc1cc(C)c(S(=O)(=O)N2CCC(NC3CCCC3)CC2)c(C)c1 [compound 132, N-cyclopentyl-1-(mesitylsulfonyl)piperidin-4-amine]
4 | 175 to 178 °C | CC1CCN(C2CCN(S(=O)(=O)c3ccc(C(F)(F)F)cc3)CC2)CC1 [compound 15, 4-Methyl-1′-((4-(trifluoromethyl)phenyl)sulfonyl)-1,4′-bipiperidine]
5 | 108 to 110 °C | CC1CCN(C2CCN(S(=O)(=O)c3ccc(Br)cc3OC(F)(F)F)CC2)CC1 [compound 45, 1′-((4-Bromo-2-(trifluoromethoxy)phenyl)sulfonyl)-4-methyl-1,4′-bipiperidine]
6 | 85 to 88 °C | Cc1cc(C)c(S(=O)(=O)N2CCC(CO)CC2)c(C)c1 [compound 137, (1-(mesitylsulfonyl)piperidin-4-yl)methanol]
7 | 168 to 170 °C | CC1CCN(C2CCN(S(=O)(=O)c3ccc(OC(F)(F)F)cc3)CC2)CC1 [compound 21, 4-Methyl-1′-((4-(trifluoromethoxy)phenyl)sulfonyl)-1,4′-bipiperidine]
8 | 171 to 173 °C | CC1CCN(C2CCN(S(=O)(=O)c3cncc(Br)c3)CC2)CC1 [compound 75, 1′-((5-Bromopyridin-3-yl)sulfonyl)-4-methyl-1,4′-bipiperidine]
9 | 75 to 78 °C | CC1CCN(C2CCN(S(=O)(=O)c3ccc(Cl)cc3Cl)CC2)CC1 [compound 41, 1′-((2,4-Dichlorophenyl)sulfonyl)-4-methyl-1,4′-bipiperidine]
10 | 178 to 181 °C | CC1CCN(C2CCN(S(=O)(=O)c3ccc(-c4ccccc4)cc3)CC2)CC1 [compound 56, 1′-([1,1′-Biphenyl]-4-ylsulfonyl)-4-methyl-1,4′-bipiperidine]
11 | 90 to 93 °C | Cc1cccc(S(=O)(=O)N2CCC(N3CCC(C)CC3)CC2)c1 [compound 26, 4-Methyl-1′-(m-tolylsulfonyl)-1,4′-bipiperidine]
12 | 120 to 123 °C | CC1CCN(C2CCN(S(=O)(=O)c3cccnc3F)CC2)CC1 [compound 73, 1′-((2-Fluoropyridin-3-yl)sulfonyl)-4-methyl-1,4′-bipiperidine]
13 | 122 to 124 °C | CC1CCN(C2CCN(S(=O)(=O)c3cccc(Cl)c3)CC2)CC1 [compound 28, 1′-((3-Chlorophenyl)sulfonyl)-4-methyl-1,4′-bipiperidine]
14 | 81 to 83 °C | COc1cccc(S(=O)(=O)N2CCC(N3CCC(C)CC3)CC2)c1 [compound 23, 1′-((3-Methoxyphenyl)sulfonyl)-4-methyl-1,4′-bipiperidine]
15 | 128 to 131 °C | CC1CCN(C2CCN(S(=O)(=O)c3cc(Cl)cc(Cl)c3)CC2)CC1 [compound 42, 1′-((3,5-Dichlorophenyl)sulfonyl)-4-methyl-1,4′-bipiperidine]
16 | 165 to 168 °C | CC1CCN(C2CCN(S(=O)(=O)c3ccc(F)cc3F)CC2)CC1 [compound 44, 1′-((2,4-Difluorophenyl)sulfonyl)-4-methyl-1,4′-bipiperidine]
17 | 106 to 109 °C | CC1CCN(C2CCN(S(=O)(=O)c3ccccc3-c3ccccc3)CC2)CC1 [compound 51, 1′-([1,1′-Biphenyl]-2-ylsulfonyl)-4-methyl-1,4′-bipiperidine]
18 | 110 to 112 °C | CC1CCN(C2CCN(S(=O)(=O)c3cccc(-c4ccccc4C(F)(F)F)c3)CC2)CC1 [compound 68, 4-Methyl-1′-((2′-(trifluoromethyl)-[1,1′-biphenyl]-3-yl)sulfonyl)-1,4′-bipiperidine]
19 | 157 to 159 °C | CC1CCN(C2CCN(S(=O)(=O)c3ccc(OCc4ccccc4)cc3)CC2)CC1 [compound 20, 1′-((4-(Benzyloxy)phenyl)sulfonyl)-4-methyl-1,4′-bipiperidine]
20 | 205 to 207 °C | CC1CCN(C2CCN(S(=O)(=O)c3ccc(-c4ccc(Cl)cc4)cc3)CC2)CC1 [compound 57, 1′-((4′-Cloro-[1,1′-biphenyl]-4-yl)sulfonyl)-4-methyl-1,4′-bipiperidine]
21 | 144 to 147 °C | CC1CCN(C2CCN(S(=O)(=O)c3cccnc3)CC2)CC1 [compound 71, 4-Methyl-1′-(pyridin-3-ylsulfonyl)-1,4′-bipiperidine]
22 | 139 to 142 °C | CC1CCN(C2CCN(S(=O)(=O)c3cn(C)cn3)CC2)CC1 [compound 78, 4-Methyl-1′-((1-methyl-1H-imidazol-4-yl)sulfonyl)-1,4′-bipiperidine]

Continued, compound first:

Row | SMILES | melting point
23 | CC1CCN(C2CCN(S(=O)(=O)c3cccc(Br)c3)CC2)CC1 [compound 29, 1′-((3-Bromophenyl)sulfonyl)-4-methyl-1,4′-bipiperidine] | 125 to 126 °C
24 | CC1CCN(C2CCN(S(=O)(=O)c3ccc(C(C)(C)C)cc3)CC2)CC1 [compound 14, 1′-((4-(Tert-butyl)phenyl)sulfonyl)-4-methyl-1,4′-bipiperidine] | 173 to 176 °C
25 | Cc1cc(C)c(S(=O)(=O)N2CCC(c3ccccc3)CC2)c(C)c1 [compound 116, 1-(Mesitylsulfonyl)-4-phenylpiperidine] | 88 to 90 °C
26 | CC1CCN(C2CCN(S(=O)(=O)c3ccc(Cl)nc3)CC2)CC1 [compound 74, 1′-((6-Chloropyridin-3-yl)sulfonyl)-4-methyl-1,4′-bipiperidine] | 178 to 182 °C
27 | Cc1ccc(-c2cccc(S(=O)(=O)N3CCC(N4CCC(C)CC4)CC3)c2)cc1 [compound 64, 4-Methyl-1′-((4′-methyl-[1,1′-biphenyl]-3-yl)sulfonyl)-1,4′-bipiperidine] | 103 to 105 °C
28 | Cc1cc(C)c(S(=O)(=O)N2CCC(N3CCC(c4ccccc4)CC3)CC2)c(C)c1 [compound 111, 1′-(Mesitylsulfonyl)-4-phenyl-1,4′-bipiperidine] | 141 to 144 °C
29 | Cc1cc(C)c(S(=O)(=O)N2CCC(C=O)CC2)c(C)c1 [compound 138, 1-(mesitylsulfonyl)piperidine-4-carbaldehyde] | 71 to 74 °C
30 | COc1ccc(-c2cccc(S(=O)(=O)N3CCC(N4CCC(C)CC4)CC3)c2)cc1 [compound 63, 1′-((4′-Methoxy-[1,1′-biphenyl]-3-yl)sulfonyl)-4-methyl-1,4′-bipiperidine] | 107 to 109 °C
31 | Cc1cc(C)c(S(=O)(=O)N2CCN(C3CN4CCC3CC4)CC2)c(C)c1 (stereo not shown) [compound 127, 3-(4-(Mesitylsulfonyl)piperazin-1-yl)quinuclidine] | > 300 °C
32 | CC1CCN(C2CCN(S(=O)(=O)c3cccc4cnccc34)CC2)CC1 [compound 90, 5-((4-Methyl-[1,4′-bipiperidin]-1′-yl)sulfonyl)isoquinoline] | 123 to 126 °C
33 | Cc1cc(C)c(S(=O)(=O)N2CCC(N3CCC(CCO)CC3)CC2)c(C)c1 [compound 100, 2-(1′-(Mesitylsulfonyl)-[1,4′-bipiperidin]-4-yl)ethanol] | 82 to 85 °C
34 | CCc1ccc(S(=O)(=O)N2CCC(N3CCC(C)CC3)CC2)cc1 [compound 12, 1′-((4-Ethylphenyl)sulfonyl)-4-methyl-1,4′-bipiperidine] | 108 to 110 °C
35 | CCc1cc(Br)ccc1S(=O)(=O)N1CCC(N2CCC(C)CC2)CC1 [compound 38, 1′-((4-Bromo-2-ethylphenyl)sulfonyl)-4-methyl-1,4′-bipiperidine] | 87 to 91 °C
36 | Cc1ccc(S(=O)(=O)N2CCC(N3CCC(C)CC3)CC2)cc1C [compound 37, 1′-((3,4-Dimethylphenyl)sulfonyl)-4-methyl-1,4′-bipiperidine] | 87 to 89 °C
37 | CC1CCN(C2CCN(S(=O)(=O)c3ccc(Cl)c4ccccc34)CC2)CC1 [compound 88, 1′-((4-Chloronaphthalen-1-yl)sulfonyl)-4-methyl-1,4′-bipiperidine] | 129 to 132 °C
38 | CC1CCN(C2CCN(S(=O)(=O)c3nccn3C)CC2)CC1 [compound 77, 4-Methyl-1′-((1-methyl-1H-imidazol-2-yl)sulfonyl)-1,4′-bipiperidine] | 153 to 156 °C
39 | CC1CCN(C2CCN(S(=O)(=O)c3cc(F)c(Br)c(F)c3)CC2)CC1 [compound 50, 1′-((4-Bromo-3,5-difluorophenyl)sulfonyl)-4-methyl-1,4′-bipiperidine] | 161 to 163 °C
40 | COc1cc(C)ccc1S(=O)(=O)N1CCC(N2CCC(C)CC2)CC1 [compound 34, 1′-((2-Methoxy-4-methylphenyl)sulfonyl)-4-methyl-1,4′-bipiperidine] | 95 to 98 °C
41 | COc1ccc(-c2ccc(S(=O)(=O)N3CCC(N4CCC(C)CC4)CC3)cc2)cc1 [compound 58, 1′-((4′-Methoxy-[1,1′-biphenyl]-4-yl)sulfonyl)-4-methyl-1,4′-bipiperidine] | 195 to 198 °C
42 | Cc1cc(C)c(S(=O)(=O)N2CCN(C34CC5CC(CC(C5)C3)C4)CC2)c(C)c1 [compound 128, 1-(Adamantan-1-yl)-4-(mesitylsulfonyl)piperazine] | 182 to 184 °C
43 | Cc1ccc(C#N)c(S(=O)(=O)N2CCC(N3CCC(C)CC3)CC2)c1 [compound 36, 4-Methyl-2-((4-methyl-[1,4′-bipiperidin]-1′-yl)sulfonyl)benzonitrile] | 118 to 121 °C
44 | CC1CCN(C2CCN(S(=O)(=O)c3cn(C)c(=O)n(C)c3=O)CC2)CC1 [compound 76, 1,3-Dimethyl-5-((4-methyl-[1,4′-bipiperidin]-1′-yl)sulfonyl)pyrimidine-2,4(1H,3H)-dione] | 212 to 215 °C
45 | CC1CCN(C2CCN(S(=O)(=O)c3ccc(Cl)c(C(F)(F)F)c3)CC2)CC1 [compound 39, 1′-((4-Chloro-3-(trifluoromethyl)phenyl)sulfonyl)-4-methyl-1,4′-bipiperidine] | 118 to 120 °C
46 | CCCOc1ccc(S(=O)(=O)N2CCC(N3CCC(C)CC3)CC2)cc1 [compound 18, 4-Methyl-1′-((4-propoxyphenyl)sulfonyl)-1,4′-bipiperidine] | 118 to 121 °C
